Results on three compounds are retold here after PMC5760531, “Action Potential Recording and Pro-arrhythmia Risk Analysis in Human Ventricular Trabeculae” (Frontiers in Physiology, 2018).

The conditions of series [1]: human free (unbound) effective therapeutic plasma concentration used to calculate multiples; cited from earlier work.
The subject of series [2] is human ventricular trabeculae. Briefly: Action potential recording and pro-arrhythmic score analysis in human ventricular trabeculae (hVT).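 Note: sharp microelectrode action potential recordings at 37°C in Tyrode-perfused trabeculae, 4 cumulative concentrations each applied 31 min, values averaged over last 30 APs, vehicle 0.1% DMSO as control.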
Protocol: Briefly, the human heart was transferred into a dissection vessel containing a cold (4°C), fresh proprietary dissection solution. The heart was maintained completely submerged in dissection solution. Ventricular trabeculae were dissected and transferred to the recording chamber.
Briefly, a single tissue was mounted into the experimental chamber filled with oxygenated Tyrode's external solution. The temperature of the solution was maintained at 37°C with flow rate at 5 mL per minute. The tissue was allowed to equilibrate for 30–60 min with stimulation (3 V, 3 ms) at a frequency of 1.0 Hz. High impedance borosilicate microelectrodes were prepared with a tip resistance of 10–20 MΩ once filled with 3 M KCl. Upon tissue impalement, the membrane potential was allowed to stabilize (typically, around −85 mV). Tissues with resting membrane potentials more positive than −75 mV were rejected. Bipolar stimulation at 1.5x threshold was applied and recordings were performed in continuous mode with sampling at 20 kHz using ADInstruments and LabChart Software.
Interruption of perfusion/oxygenation; (2). Absence of Aps following stimulation at baseline; (3). Time frame of drug exposure not respected; (4). Unstable response to stimulation at baseline; (5). Resting membrane potential (RMP) > −75 mV; 7). Maximal amplitude of AP (AMAX) <70 mV; 8). AP duration at 90% repolarization (APD90) <200 ms or >450 ms.
Experimental Procedure: Each test article was evaluated at 4 concentrations in 4 ventricular trabeculae derived from a minimum of 2 donor hearts. Testing concentrations were chosen based upon human free ETPC, aiming to cover 1–100-fold of human free ETPC. […] Briefly, following stabilization of each tissue, APs were collected and assessed for 31 min in vehicle control solution (Tyrode with 0.1% DMSO) at stimulation frequencies of 1 Hz for 25 min, 2 Hz for 3 min and then 1 Hz for 3 min. Following this vehicle control period, 4 concentrations of a test compound were applied sequentially and cumulatively. Each concentration was applied for 31 min with the same stimulation sequence as in vehicle controls.
For each frequency tested, the last 30 APs acquired at the end of the period were averaged for vehicle controls and for each test article concentration. Analysis at 1 Hz included only the last 30 APs of the initial 25-min incubation period. The following AP parameters and pro-arrhythmia variables were analyzed offline upon the completion of recordings:
• RMP (mV) • AMAX (mV) • AP duration at percent repolarization (APD20, APD30, APD50, APD60, APD90) (ms) • Short term variability analysis of AP duration (STV): Beat-to-beat variability of repolarization was quantified as STV from APD90 Poincare plots over a period of 30 sec.
Compound effects were quantified relative to the data collected during the vehicle control period (see Figure 1). […] Additionally, based on AnaBios historical data, threshold values for changes over baseline control for AP instability, APD alternans, Maximum APD dispersion and ERP (APD) were based upon an effect level of 10%. When applicable, differences were tested for statistical significance using the unpaired Student's t-test. A value of P < 0.05 was considered significant.
AP parameters and pro-arrhythmia variables were combined into a meaningful, single score to assess the pro-arrhythmic risk of a compound at each concentration tested. The pro-arrhythmic potential of compounds at 1 or 2 Hz was determined by assigning a weighted scale to each variable (Table 1).
Setting [3] is: 1Hz, c1-c4: 2-FOLD, 21-FOLD, 69-OLD, 207-FOLD free ETPC (0.145µM).
Where [4] appears, read: 2Hz, c1-c4: 2-FOLD, 21-FOLD, 69-OLD, 207-FOLD free ETPC (0.145µM).
Setting [5] is: average raw data, 1Hz, c2-c5: 2-FOLD, 21-FOLD, 69-OLD, 207-FOLD free ETPC (0.145µM).
[6] abbreviates: average raw data, 2Hz, c2-c5: 2-FOLD, 21-FOLD, 69-OLD, 207-FOLD free ETPC (0.145µM).
Where [7] appears, read: initial 3 testing concentrations.
The mark [8] stands for this setting: 1Hz, c1-c4: 0.4-, 1.3-, 13-, 43-FOLD free ETPC (2.3µM).
[9] abbreviates: 2Hz, c1-c4: 0.4-, 1.3-, 13-, 43-FOLD free ETPC (2.3µM).
Where [10] appears, read: average raw data, 1Hz, c2-c5: 0.4-, 1.3-, 13-, 43-FOLD free ETPC (2.3µM).
Where [11] appears, read: average raw data, 2Hz, c2-c5: 0.4-, 1.3-, 13-, 43-FOLD free ETPC (2.3µM).

Where “and” joins values, the source holds several entries; their conditions need not be identical. Identical values can stand only once.

As for `CC(CC(c1ccccc1)c1ccccc1)NC(C)(C)C` (stereo not shown) [TERODILINE, Terodiline], in series [1], the “Free ETPC” value was 0.145 µM. Besides, in series [2] (setting [3]), the EADs incidence is listed as 0% and the “Refractoriness Escape incidence” value stood at 0%. Further, in series [2] (setting [4]), the EADs incidence was determined as 0% and the “Refractoriness Escape incidence” value is recorded as 0%. Besides, in series [2] (2 Hz, first concentration), the STV was found to be 0.9. This compound also yielded an STV in series [2] (2 Hz, third concentration) of 2.2. The STV increase in series [2] (2 Hz, third versus first concentration) is 144%. Further, the EAD induction entry in series [2] (any testing concentration, 1 and 2 Hz) is “did not induce EAD”. In series [2] (setting [5]), the AMAX was 111 mV and 110 mV and 108 mV and 102 mV; the APD30 is 151 ms and 142 ms and 126 ms and 113 ms; the APD50 is 200 ms and 192 ms and 178 ms and 164 ms; the APD90 was 270 ms and 268 ms and 293 ms. In series [2] (setting [5]), the “Beat Escape” value is recorded as 1; the EADs was 0; the ERP is 0.44 and 0.45 and 0.48 and 0.49; the “Refractoriness Escape” value is on record as 0. Further, the Triangulation in series [2] (setting [5]) is 119 and 126 and 144 and 180. Moreover, in series [2] (setting [6]), the AMAX was 109 mV and 108 mV and 106 mV and 100 mV; the APD30 is 115 ms and 108 ms and 100 ms and 104 ms; the APD50 is 157 ms and 150 ms and 140 ms and 151 ms; the APD90 is 225 ms and 223 ms and 228 ms and 276 ms. Also, in series [2] (setting [6]), the “Beat Escape” value was found to be 1; the EADs is given as 0; the ERP was 0.45 and 0.47 and 0.48; the “Refractoriness Escape” value was found to be 0. The Triangulation in series [2] (setting [6]) is 110 and 115 and 128 and 172. In series [2] (especially at 30 μM), the “effect on amplitude of AP” value was “decreased the amplitude of AP”. In addition, in series [2] (setting [7]), the “change in APD90” value is reported as “less than 10%” and the change in triangulation was at least 20%.
In the case of `COc1ccccc1OCC(O)CN1CCN(CC(=O)Nc2c(C)cccc2C)CC1` (stereo not shown) [RANOLAZINE, Ranolazine], the “Free ETPC” value in series [1] is recorded as 2.3 µM. For the same compound, in series [2] (setting [8]), the EADs incidence was 0% and the “Refractoriness Escape incidence” value is on record as 0%. For the same compound, in series [2] (setting [9]), the EADs incidence is recorded as 0% and the “Refractoriness Escape incidence” value was 0%. Further, in series [2] (setting [10]), the AMAX is 112 mV and 111 mV and 113 mV and 109 mV; the APD30 was 146 ms and 136 ms and 126 ms and 116 ms; the APD50 is 198 ms and 187 ms and 181 ms and 170 ms; the APD90 is 266 ms and 257 ms and 274 ms and 294 ms. Besides, in series [2] (setting [10]), the Alternans was 0.34 and 0.37 and 0.39; the EADs was determined as 0; the ERP was 0.47 and 0.48 and 0.50 and 0.49; the “Max Dispersion” value is 1.65 and 1.42 and 1.45 and 1.75. In addition, in series [2] (setting [10]), the “Refractoriness Escape” value stood at 0; the STV is 0.22 and 0.27 and 0.29 and 0.24; the Triangulation is 121 and 148 and 178. In series [2] (setting [11]), the AMAX is 111 mV and 105 mV; the APD30 was 108 ms and 102 ms and 99 ms and 104 ms; the APD50 was 151 ms and 144 ms and 143 ms; the APD90 is 215 ms and 210 ms and 230 ms and 275 ms. In series [2] (setting [11]), the EADs was found to be 0; the ERP is 0.48 and 0.49 and 0.47; the “Refractoriness Escape” value was 0; the Triangulation was 107 and 108 and 131 and 172.
In the case of `COc1c(N2C[C@@H]3CCCN[C@@H]3C2)c(F)cc2c(=O)c(C(=O)O)cn(C3CC3)c12` [MOXIFLOXACIN, Moxifloxacin], the EAD detection entry in series [2] (at 91-fold hETPC) is recorded as “only detected in one trabecula”.
